What was measured:
Type in all cases: cell-based
[1] = tested on: Saccharomyces cerevisiae wild type strain BY4743; test: AF1 yeast gene expression analysis (microarray, KEGG pathway mapping); conditions: p < 0.05; KEGG mapping
Protocol: Saccharomyces cerevisiae wild type strain BY4743 was purchased from American Type Culture Center (ATCC, Manassas, Va.). The yeast strain was grown in YPD or SD media. H. […] The cultures started from fresh single colonies were grown in 1.0 ml YPD overnight at 30° C. […] The OD600 was adjusted to 1.0 with YPD media, then 2.0 ml of each was inoculated into three 250 ml flasks, each containing 50 ml of SD media. […] The cells were kept growing for another two hours, then collected by centrifugation at 4000 rpm for 5 minutes at 4° C. Pellets were washed once with ice-cold water, then were lyophilized overnight at 4° C. […] Tubes were vortexed for 30 seconds, then incubated for 10 minutes at room temperature (RT). […] Tubes were incubated for 10 minutes at RT. Samples were centrifuged for 20 minutes as before. Pellets were washed with 400 μl 70% ethanol and centrifuged for 10 minutes as before. The pellet was then dissolved in 100 μl nuclease-free water. RNA quality was determined using the Bioanalyzer 2100 and the RNA 6000 assay (Agilent Technologies, Palo Alto, Calif.) according to manufacturer's instructions. RNA concentrations were determined spectrophotometrically by measuring the absorption at 260 nm in an Ultrospec 2000 (Pharmacia Biotech, Piscataway, N.J.). […] Labeled cRNAs were evaluated using the RNA 6000 assay on the Agilent Bioanalyzer 2100. Labeled cRNA concentrations were determined spectrophotometrically by measuring the absorption at 260 nm in an Ultrospec 2000 (Pharmacia Biotech, Piscataway, N.J.). […] Each pair of samples to be hybridized were independently labeled and hybridized utilizing a fluor reversal for a total of two hybridizations per sample pair. The microarrays were scanned simultaneously in the Cy3 and Cy5 channels with Agilent's 48-slide, Dual Laser DNA Microarray Scanner (Agilent Technologies, Palo Alto, Calif.) at 10 μm resolution using default settings. Image Analysis Software (Version A.4.0.45, Agilent Technologies, Palo Alto, Calif.) was used for image analysis. Each feature was determined from an array's associated pattern file and a detection algorithm. Intensity values for each feature were determined after subtracting background derived from an average of negative control features. Features with unusual pixel intensity statistics (e.g., high non-uniformity, saturation in either channel, and the like) were excluded from downstream analyses. Data was loaded into the Rosetta RESOLVER database (Rosetta Inpharmatics Inc., Kirkland, Wash.) for storage and analysis. Data was evaluated after combining results from fluor reversal replicate hybridizations. The annotation of yeast ORFs was obtained from Proteome BIOKNOWLEDGE Library (Incyte Genomics, Palo Alto, Calif.). In AF1, two different technologies were utilized: gene expression analysis (for examination of mRNA expression) and metabolite analysis. […] As noted previously, existing metabolic databases may be helpful in practicing the methods and systems of the present invention, but many databases include limitations that make their use in data analysis and pathway mapping less than straightforward. […] This caveat to KEGG makes it difficult to pinpoint the correct pathway when attempting to link a gene to a specific pathway. The pathway score indicates how meaningful the mapping is, or how likely it is to be correctly indicative of the pathway involved in the perturbation under examination. The method provides a pathway score based on perturbation levels of genes and/or compounds and the information content of each gene and/or compound in the pathway, i.e., a pathway score indicates the extent to which other pathways are mapped to a gene/compound. For example, imagine that two genes are perturbed in a particular experiment.

[2] = tested on: Saccharomyces cerevisiae wild type strain BY4743; test: AF1 yeast metabolite analysis by GC-MS and LC-MS; conditions: for # Compounds perturbed by treatment: 2×MIC, two hours
[3] = tested on: Saccharomyces cerevisiae wild type strain BY4743; test: AF1 combined gene expression and metabolite data (reactions, pathways, cluster analysis)
Description: The data were then combined to determine the number of reactions showing an enzyme and at least one compound perturbed, and to determine the number of pathways having at least one enzyme and one perturbed compound perturbed. The results of the analysis are represented in Tables 16 and 17, and were difficult to interpret, illustrating that the ability to draw conclusions from compound mapping to pathways is limited when absent additional data. […] A coherent data set was created from data obtained from the four above-described drug compounds. The data were reduced by using principle components analysis and cluster analysis.

## OC(Cn1cncn1)(Cn1cncn1)c1ccc(F)cc1F [Fluconazole]
[1]
  Number of Pathways Affected by at Least One Gene, # Pathways: 79
[2]; P < 0.05
  # Compounds perturbed by treatment: 2
[2]; P < 0.1
  # Compounds perturbed by treatment: 6
[2]; Platform GC
  Fold Change: TMS mevalonic acid lactone: 0.1434
  Fold Change: squalene: 0.1999
  Fold Change: sugar?: 0.4817
  Fold Change: tetradecanoic acid: 0.07967
  Fold Change: threonine2: 0.5053
  Fold Change: threonine3: 0.2513
  Fold Change: tms glutamine3: 0.7271
  Fold Change: tms lysine4: 0.3657
  Fold Change: tms tyrosine2: 0.8643
  Fold Change: tms tyrosine3: 0.3321
  Fold Change: valine: 0.2727
[2]; Platform nLC
  Fold Change, benzoic acid: 0
  Fold Change: retinoic acid: 0
  Fold Change: salicylic/HObenzoic: 0
  Fold Change: selenoDLmethionine: −0.5748
  Fold Change: serine: 0.3936
  Fold Change: shikimic acid: 0
  Fold Change: sinapinic acid: 0
  Fold Change: sorbitol/mannitol: 0.365
  Fold Change: succinic: 0.3094
  Fold Change: sucrose: 0.3104
  Fold Change: sugar-phosphate: −0.05306
  Fold Change: tetradecanoic acid: 0.5495
  Fold Change: threonine/homoserin: 0.3257
  Fold Change: thymine: 0
  Fold Change: tryptophan: 1.649
  Fold Change: tyrosine: 0.2303
  Fold Change: uracil: 1.256
  Fold Change: uridine: 0.3463
  Fold Change: urocanic acid: 0
  Fold Change: valine: 0.3235
  Fold Change: xanthosineDiH2O: 0
  Fold Change: zeatin: 0
[2]; Platform pLC
  Fold Change: riboflavin: 0
  Fold Change: selenoDLmethionine: −0.6865
  Fold Change: serine: 0.11
  Fold Change: sugar-phosphate: 0
  Fold Change: thiamine: 0
  Fold Change: threonine/homoserin: 0.1604
  Fold Change: thymine: 0
  Fold Change: tryptophan: 0
  Fold Change: tyrosine: 0.1099
  Fold Change: uric acid: 0
  Fold Change: urocanic acid: 0
  Fold Change: xanthosine(diH2O): 0
  Fold Change: zeatin: 0
[3]
  Number of Reactions Having an Enzyme and at Least One Compound Perturbed, # Reactions: 2

## CC(=O)N1CCN(c2ccc(OCC3COC(Cn4ccnc4)(c4ccc(Cl)cc4Cl)O3)cc2)CC1 (centres unmarked) [Ketoconazole]
[1]
  Number of Pathways Affected by at Least One Gene, # Pathways: 90
[2]; P < 0.1
  # Compounds perturbed by treatment: 15
[3]
  Number of Reactions Having an Enzyme and at Least One Compound Perturbed, # Reactions: 21
